The test system of one series is normal rat astrocytes. Nature of the series: Cytotoxicity by MTT assay on normal astrocytes. The format is cell-based. The following applies: 10 or 100 uM, 48 hours incubation. How it is done: (§1) Using glioma-selective sequences from the second family shown in FIG. 4 (and in FIG. 5(a)), a fusion molecule containing the same identical cell-targeting peptide coupled to a cell-killing peptide was designed and synthesized. Glioma cells (malignant cells originating from astrocytes) and normal astrocytes were treated with increasing concentrations (10 or 100 uM) of cytotoxic peptide alone, or cytotoxic peptide linked to the targeting peptide, i.e. the peptide drug, and cytotoxicity was evaluated by MTT assay (this assay measures cell viability).
(§2) FIG. 5(b) further illustrates the cytotoxic effect of d(KLAKLAK)2(SEQ ID NO:4) and DSTK-GG-d(KLAKLAK)2(SEQ ID NO:5) peptides on the glioma cells and the normal astrocytes. RG2 glioma cells and normal rat astrocytes were plated in quadruplicate in 96-well plates for 24 hours. Increasing concentrations (10 or 100 uM) of cytotoxic peptide alone, d(KLAKLAK)2(SEQ ID NO:4), or cytotoxic peptide linked to targeting peptide, DSTK-GG-d(KLAKLAK)2(SEQ ID NO:5), were added to the cells for 48 hours incubation. Cytotoxicity of therapeutic peptides were evaluated by MTT assay.
Background: Formazan colour is commonly taken as a measure of viable cells.

The test system of series [1] is RG2 glioma cells. Briefly: Cytotoxicity by MTT assay on glioma cells. Type of series: cell-based, rat. The following applies: 10 or 100 uM, 48 hours incubation. How it is done:
as §1, §2

In series [2] the test system is RG2 glioma cells. Nature of the series: Detection of internalized phage particles by immunofluorescence microscopy (saponin+/saponin−). The format is cell-based, rat. The following applies: saponin-treated vs untreated RG2 cells. How it is done:
FIG. 5(a) illustrates the detection of internalized phage particles by immunofluorescence microscopy. RG2 glioma cells were grown on chamber slides and incubated with DSTKSGNM (SEQ ID NO:3) phage. In cells treated with saponin (saponin+) to permeabilize cell membranes, both internalized and extracellular bound phage particles were accessible for staining. Without saponin treatment (saponin−), FIG. 5(a) illustrates that only extracellular phage were available for detection. These slides were then processed for immunofluorescence microscopy with antibody against filed phage, followed by a fluorescein-conjugated secondary antibody to visualize phage particles.

Consider `CC(C)C[C@@H](NC(=O)[C@H](N)CCCCN)C(=O)N[C@H](C)C(=O)N[C@H](CCCCN)C(=O)N[C@H](CC(C)C)C(=O)N[C@H](C)C(=O)N[C@H](CCCCN)C(=O)N[C@H](CCCCN)C(=O)N[C@H](CC(C)C)C(=O)N[C@H](C)C(=O)N[C@H](CCCCN)C(=O)N[C@H](CC(C)C)C(=O)N[C@H](C)C(=O)N[C@H](CCCCN)C(=O)O` [cytotoxic peptide alone, d(KLAKLAK)2, reference compound], for which the “effect on normal astrocytes (MTT, cell viability)” value in the series on normal rat astrocytes is given as “None of the peptides, with or without targeting, demonstrated any effect”. Moreover, the “cytotoxic effect on glioma cells (MTT, cell viability)” value in the series with RG2 glioma cells [1] is given as “no effect”.
In the case of `CC(C)C[C@@H](NC(=O)[C@@H](CCCCN)NC(=O)CNC(=O)CNC(=O)[C@H](CCCCN)NC(=O)[C@@H](NC(=O)[C@H](CO)NC(=O)[C@@H](N)CC(=O)O)[C@@H](C)O)C(=O)N[C@H](C)C(=O)N[C@H](CCCCN)C(=O)N[C@H](CC(C)C)C(=O)N[C@H](C)C(=O)N[C@H](CCCCN)C(=O)N[C@H](CCCCN)C(=O)N[C@H](CC(C)C)C(=O)N[C@H](C)C(=O)N[C@H](CCCCN)C(=O)N[C@H](CC(C)C)C(=O)N[C@H](C)C(=O)N[C@H](CCCCN)C(=O)O` [peptide drug, DSTK-GG-d(KLAKLAK)2], the “effect on normal astrocytes (MTT, cell viability)” value in the series with normal rat astrocytes is “None of the peptides, with or without targeting, demonstrated any effect”. For the same molecule, in the series on RG2 glioma cells [1], the “cytotoxic effect on glioma cells (MTT, cell viability)” value is “clear cytotoxic effect”.
In the case of DSTKSGNM [DSTKSGNM phage], the “internalization of phage by cells” value in the series on RG2 glioma cells [2] is given as “internalized”.
